Measured values from paper PMC11173382, “In Vitro Investigations into the Potential Drug Interactions of Pseudoginsenoside DQ Mediated by Cytochrome P450 and Human Drug Transporters” (Molecules, 2024).

Key:
[1] = target: T1, hOCT2 (Homo sapiens, UniProt O15244); assay: Substrates uptake assay, S2-OCT2 cells (14C-TEA); format: in vitro ADME; settings: inhibitor 600 μM
T1 construct: host or cells: S2-OCT2
T1 sequence (O15244 1-555): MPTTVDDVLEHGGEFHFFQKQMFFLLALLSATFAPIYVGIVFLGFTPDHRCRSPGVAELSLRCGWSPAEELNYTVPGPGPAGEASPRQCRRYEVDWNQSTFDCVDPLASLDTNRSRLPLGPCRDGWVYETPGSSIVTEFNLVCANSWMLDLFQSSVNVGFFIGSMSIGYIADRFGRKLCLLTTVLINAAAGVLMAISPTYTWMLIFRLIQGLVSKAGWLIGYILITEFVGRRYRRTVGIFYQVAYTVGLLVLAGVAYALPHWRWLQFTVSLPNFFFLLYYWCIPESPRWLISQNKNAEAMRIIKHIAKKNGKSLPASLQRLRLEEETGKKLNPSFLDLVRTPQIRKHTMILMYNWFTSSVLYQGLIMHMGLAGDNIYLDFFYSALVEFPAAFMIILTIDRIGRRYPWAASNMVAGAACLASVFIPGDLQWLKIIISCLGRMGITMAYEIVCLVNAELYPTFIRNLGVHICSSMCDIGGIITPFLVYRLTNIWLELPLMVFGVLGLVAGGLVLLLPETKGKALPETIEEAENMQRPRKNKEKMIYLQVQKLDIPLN
Source text: (§1) Drug transporters mediate the cellular uptake and efflux of their substrates. Therefore, cell lines overexpressing a drug transporter can be utilized to investigate inhibitors of the transporter by assessing changes in substrate uptake. For each drug transporter, we selected a well-characterized inhibitor as the positive control. Radiolabeled substrates were used to indicate the decrease in transport efficiency when the drug transporters were inhibited by PDQ or the control inhibitors.
(§2) The concentrations of the control drugs and the substrates were stated in the assay details. Working solutions of the control inhibitors, the radiolabeled substrates, and each dose of PDQ were prepared at 200 times (200×) more concentrated solutions with DMSO for further dilution.
(§3) Transporter-overexpressed cell lines. Human organic anion transporter-overexpressed cell lines MDCKII-OAT1 and S2-OAT3, human organic anion transport polypeptide-overexpressed cell lines HEK293A-OATP1B1 and HEK293A-OATP1B3, human organic cation transporter 2-overexpressed cell line S2-OCT2, and human multi-drug resistance protein MDR1 (or P-gp)-overexpressed cell line MDCKII-MDR1 were gifts from Japan Fuji Biomedical Co., Ltd. (Fuji, Shizuoka Prefecture, Japan). Breast cancer resistance protein-overexpressed vesicles (sf9-BCRP vesicle) were purchased from GenoMembrane Co., Ltd. (Yokohama, Kanagawa, Japan).
(§4) Substrates uptake assay. In this assay, we studied the inhibition of PDQ against transporters OAT1, OAT3, OCT2, OATP1B1 and OATP1B3 with MDCKII-OAT1, S2-OAT3, S2-OCT2, HEK293A-OATP1B1and HEK293A-OATP1B3 cells, respectively. The radiolabeled substrates for OAT1, OAT3, OATP1B1, OATP1B3 and OCT2 were […], respectively (Table 5). Probenecid ([…]) was the positive control inhibitor of OAT1 and OAT3, while rifampicin ([…]) served as the control drug of OATP1B1 and OATP1B3. For OCT2, we used […] cimetidine to compare with the inhibitory effect of PDQ. Two times (2×) more concentrated working solutions of the drugs and the substrate were prepared with Dulbecco’s phosphate-buffered saline (DPBS, Gibco, Grand Island, NY, USA.). Then, an equal volume of 2× drug solution and 2× radiolabeled substrate solution were mixed as the working mix. All reagents were pre-warmed to 37 °C.
(§5) The cells were digested with 0.05% trypsin/EDTA. The density of the single-cell suspension was adjusted to 2.0 × 10^5 cells/mL for S2 cells and to 1.5 × 10^5 cells/mL for MDCK II and HEK293A cells. The cell suspension was then added to the reservoirs of the 24-well plate for culture until full confluency. The medium in the wells was removed, and the wells were washed with DPBS. Then, the plate was incubated for 10 min with pre-warmed DPBS in the wells. After removing DPBS, […] of working mix was added to each well to initiate the substrate uptake process. The reaction time was 5 min for S2-OCT2 cells, while the other four types of cells were incubated with the reaction mix for 2 min. Cold DPBS was used to terminate the substrate transportation. To each well, […] NaOH ([…]) was added to lyse the cells. Then, […] cell lysate was transferred to the counting vials, and 3 mL scintillation cocktail (Aquasol-2, PerkinElmer, Waltham, MA, USA) was added. […] Each sample was replicated three times (N = 3).
(§6) In = [100 × (U − U0)/(Uc − U0)]%(3)
(§7) The results were expressed as mean ± standard deviation (SD) and analyzed with GraphPad Prism 8.0 software (CA, USA). The IC50 of PDQ was curve-fitted with the FORECAST function. Statistical significance was calculated using a two-tailed test, and a p value < 0.05 was considered as significant.

[2] = tested on: CYP2C9; parameters: method as in PMID 30078466; settings: cited from earlier work
[3] = target: T2, hOAT3 (Homo sapiens, UniProt Q8TCC7); assay: Substrates uptake assay, S2-OAT3 cells (3H-ES); format: in vitro ADME; settings: inhibitor 100 μM
T2 sequence (Q8TCC7 1-542): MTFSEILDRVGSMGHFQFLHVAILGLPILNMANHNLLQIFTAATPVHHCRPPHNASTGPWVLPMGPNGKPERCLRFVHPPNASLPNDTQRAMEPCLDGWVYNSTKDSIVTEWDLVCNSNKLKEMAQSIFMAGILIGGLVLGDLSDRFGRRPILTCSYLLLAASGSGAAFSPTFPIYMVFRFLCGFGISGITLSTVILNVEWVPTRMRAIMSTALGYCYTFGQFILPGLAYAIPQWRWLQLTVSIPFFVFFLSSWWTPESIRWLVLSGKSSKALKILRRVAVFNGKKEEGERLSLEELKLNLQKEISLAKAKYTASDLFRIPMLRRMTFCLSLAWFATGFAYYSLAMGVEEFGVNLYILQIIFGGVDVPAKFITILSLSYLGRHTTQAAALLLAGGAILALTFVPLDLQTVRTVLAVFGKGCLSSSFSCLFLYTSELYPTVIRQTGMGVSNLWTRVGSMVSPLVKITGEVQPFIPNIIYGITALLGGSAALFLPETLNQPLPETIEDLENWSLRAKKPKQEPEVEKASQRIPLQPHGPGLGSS
Source text: as §1, §2, §3, §4, §5, §6, §7

[4] = target: T3, hOATP1B3 (Homo sapiens, UniProt Q9NPD5); assay: Substrates uptake assay, HEK293A-OATP1B3 cells (3H-EG); format: in vitro ADME; settings: inhibitor 60 μM
T3 sequence (Q9NPD5 1-702): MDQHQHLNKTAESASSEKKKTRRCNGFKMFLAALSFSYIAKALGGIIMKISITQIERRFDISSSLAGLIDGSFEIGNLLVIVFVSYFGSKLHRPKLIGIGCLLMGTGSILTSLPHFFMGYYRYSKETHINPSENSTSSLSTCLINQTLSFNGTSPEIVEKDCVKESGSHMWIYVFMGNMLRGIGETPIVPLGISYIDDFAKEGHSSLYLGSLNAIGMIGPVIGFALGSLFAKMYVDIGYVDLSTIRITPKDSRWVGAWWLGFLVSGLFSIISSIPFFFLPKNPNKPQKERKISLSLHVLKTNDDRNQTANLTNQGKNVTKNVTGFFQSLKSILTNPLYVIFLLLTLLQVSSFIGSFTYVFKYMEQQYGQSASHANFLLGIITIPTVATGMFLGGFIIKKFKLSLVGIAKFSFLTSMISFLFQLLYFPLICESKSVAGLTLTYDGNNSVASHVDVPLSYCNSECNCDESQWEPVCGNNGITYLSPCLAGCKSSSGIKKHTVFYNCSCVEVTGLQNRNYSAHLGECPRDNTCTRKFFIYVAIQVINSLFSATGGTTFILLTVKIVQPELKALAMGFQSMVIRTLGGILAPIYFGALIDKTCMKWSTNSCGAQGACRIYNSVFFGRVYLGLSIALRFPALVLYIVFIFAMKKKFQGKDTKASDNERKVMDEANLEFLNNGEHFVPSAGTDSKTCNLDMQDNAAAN
Source text: as §1, §2, §3, §4, §5, §6, §7

[5] = target: T4, hOATP1B1 (Homo sapiens, UniProt Q9Y6L6); assay: Substrates uptake assay, HEK293A-OATP1B1 cells (3H-ES); format: in vitro ADME; settings: inhibitor 60 μM
T4 sequence (Q9Y6L6 1-691): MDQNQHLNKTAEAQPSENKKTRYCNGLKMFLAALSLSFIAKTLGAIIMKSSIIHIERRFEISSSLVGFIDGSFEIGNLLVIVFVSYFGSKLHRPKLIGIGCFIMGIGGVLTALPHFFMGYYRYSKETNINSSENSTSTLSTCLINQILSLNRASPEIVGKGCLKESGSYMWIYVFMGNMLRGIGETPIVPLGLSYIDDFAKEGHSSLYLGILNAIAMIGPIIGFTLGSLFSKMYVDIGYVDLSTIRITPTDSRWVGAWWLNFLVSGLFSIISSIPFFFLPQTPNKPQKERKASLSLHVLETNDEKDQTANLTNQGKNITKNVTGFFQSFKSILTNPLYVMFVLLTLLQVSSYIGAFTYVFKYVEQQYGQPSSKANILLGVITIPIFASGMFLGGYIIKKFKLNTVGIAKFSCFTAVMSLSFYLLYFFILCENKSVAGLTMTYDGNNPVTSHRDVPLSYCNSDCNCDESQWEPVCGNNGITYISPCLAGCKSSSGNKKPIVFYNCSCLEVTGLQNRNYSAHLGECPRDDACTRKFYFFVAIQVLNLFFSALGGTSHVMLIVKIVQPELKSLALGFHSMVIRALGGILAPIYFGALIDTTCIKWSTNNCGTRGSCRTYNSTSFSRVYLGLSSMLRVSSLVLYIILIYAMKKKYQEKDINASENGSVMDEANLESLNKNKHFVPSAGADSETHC

CN/C(=N/CCSCc1nc[nH]c1C)NC#N [Cimetidine, reference compound]
DPM (14C-TEA uptake by OCT2) [1]: 417.3±44.8 DPM

CC(C)=CCC[C@](C)(O[C@@H]1O[C@H](CO[C@@H]2O[C@H](CO)[C@@H](O)[C@H](O)[C@H]2O)[C@@H](O)[C@H](O)[C@H]1O)[C@H]1CC[C@]2(C)[C@@H]1[C@H](O)C[C@@H]1[C@@]3(C)CC[C@H](O[C@@H]4O[C@H](CO)[C@@H](O)[C@H](O)[C@H]4O[C@@H]4O[C@H](CO)[C@@H](O)[C@H](O)[C@H]4O)C(C)(C)[C@@H]3CC[C@]12C [Ginsenoside Rb1]
IC50 [2]: 2400 nM

CCCN(CCC)S(=O)(=O)c1ccc(C(=O)O)cc1 [Probenecid, reference compound]
DPM (3H-ES uptake by OAT3) [3]: 1709.3±343.6 DPM

CO[C@H]1/C=C/O[C@@]2(C)Oc3c(C)c(O)c4c(O)c(c(/C=N/N5CCN(C)CC5)c(O)c4c3C2=O)NC(=O)/C(C)=C\C=C\[C@H](C)[C@H](O)[C@@H](C)[C@@H](O)[C@@H](C)[C@H](OC(C)=O)[C@@H]1C [Rifampicin, reference compound]
DPM (3H-EG uptake by OATP1B3) [4]: 769.0±126.5 DPM
DPM (3H-ES uptake by OATP1B1) [5]: 2798.7±891.8 DPM
